Reference: PMC10126150 (2023)

Experiments:
[1] = test system: atp-7 ADS construct (DNA, aptamer) CACCTGGGGGAGTATTGCGGAGGAAGGTTTCTGTCTCTTATACACATCTGACGCTGCCGACGA/TCGTCGGCAGCGTCAGATGTGTATAAGAGACAGTTTTTTTTTTTTTTTTTTTTTTTTTCCGGGGGCTATC; test: Cy3/quencher fluorescence plate reader, two-site fit; conditions: 120 mM Na+, 5 mM K+, 1 mM Mg2+, 1 mM Ca2+; 20 mM Tris-HCl, 0.01% Tween-20, 25 °C; apparent; lower end of range 12–157, atp-7 stated highest affinity
[2] = test system: NNGmin_scr with glu-1 (DNA, other, boronic acid-modified U (Z) at 1,4,15,18,19,22,26,29 of strand 1) TGGTGCGCGCAGGCTCCTTAATGCATAATTTTCTGTCTCTTATACACATCTGACGCTGCCGACG/TCGTCGGCAGCGTCAGATGTGTATAAGAGACAGTTTTTTTTTTTTTTTTTTTTTTTTTTAGGGCAGGCTC; test: Cy3/quencher fluorescence plate reader; conditions: 120 mM Na+, 5 mM K+, 1 mM Mg2+, 1 mM Ca2+; 20 mM Tris-HCl, 25 °C; 20% signal change against 45-50% for glu1-4
[3] = test system: NNGmin_scr with glu-2 (DNA, other, boronic acid-modified U (Z) at 1,4,15,18,19,22,26,29 of strand 1) TGGTGCGCGCAGGCTCCTTAATGCATAATTTTCTGTCTCTTATACACATCTGACGCTGCCGACG/TCGTCGGCAGCGTCAGATGTGTATAAGAGACAGTTTTTTTTTTTTTTTTTTTTTTTTTCAGGACAGGCTC; test: Cy3/quencher fluorescence plate reader; conditions: 120 mM Na+, 5 mM K+, 1 mM Mg2+, 1 mM Ca2+; 20 mM Tris-HCl, 25 °C; 20% signal change against 45-50% for glu1-4
[4] = test system: NNGmin_scr with glu-3 (DNA, other, boronic acid-modified U (Z) at 1,4,15,18,19,22,26,29 of strand 1) TGGTGCGCGCAGGCTCCTTAATGCATAATTTTCTGTCTCTTATACACATCTGACGCTGCCGACG/TCGTCGGCAGCGTCAGATGTGTATAAGAGACAGTTTTTTTTTTTTTTTTTTTTTTTTTTACCAGGAGCTC; test: Cy3/quencher fluorescence plate reader; conditions: 120 mM Na+, 5 mM K+, 1 mM Mg2+, 1 mM Ca2+; 20 mM Tris-HCl, 25 °C; 20% signal change against 45-50% for glu1-4
[5] = test system: NNGmin_scr with glu-4 (DNA, other, boronic acid-modified U (Z) at 1,4,15,18,19,22,26,29 of strand 1) TGGTGCGCGCAGGCTCCTTAATGCATAATTTTCTGTCTCTTATACACATCTGACGCTGCCGACG/TCGTCGGCAGCGTCAGATGTGTATAAGAGACAGTTTTTTTTTTTTTTTTTTTTTTTTTACCAGGAGCTTC; test: Cy3/quencher fluorescence plate reader; conditions: 120 mM Na+, 5 mM K+, 1 mM Mg2+, 1 mM Ca2+; 20 mM Tris-HCl, 25 °C; 20% signal change against 45-50% for glu1-4
[6] = test system: glu-1 ADS construct (DNA, aptamer, boronic acid-modified U (Z, T in the source) at 5,7,8,12,15,19,24,26 of strand 1 (MS of Bio-NNGmin: seven of eight coupled)) CCCGTGTTAGATAGTAAGTGCAATCTCGGCTTTCTGTCTCTTATACACATCTGACGCTGCCGACGA/TCGTCGGCAGCGTCAGATGTGTATAAGAGACAGTTTTTTTTTTTTTTTTTTTTTTTTTTAGGGCAGGCTC; test: Cy3/quencher fluorescence plate reader, single-site fit; conditions: 120 mM Na+, 5 mM K+, 1 mM Mg2+, 1 mM Ca2+; 20 mM Tris-HCl, 0.01% Tween-20, 25 °C; apparent; order of ~0.3 for all four constructs
[7] = test system: glu-2 ADS construct (DNA, aptamer, boronic acid-modified U (Z, T in the source) at 5,7,8,12,15,19,24,26 of strand 1 (MS of Bio-NNGmin: seven of eight coupled)) CCCGTGTTAGATAGTAAGTGCAATCTCGGCTTTCTGTCTCTTATACACATCTGACGCTGCCGACGA/TCGTCGGCAGCGTCAGATGTGTATAAGAGACAGTTTTTTTTTTTTTTTTTTTTTTTTTCAGGACAGGCTC; test: as above; conditions: 120 mM Na+, 5 mM K+, 1 mM Mg2+, 1 mM Ca2+; 20 mM Tris-HCl, 0.01% Tween-20, 25 °C; apparent; order of ~0.3 for all four constructs
[8] = test system: glu-3 ADS construct (DNA, aptamer, boronic acid-modified U (Z, T in the source) at 5,7,8,12,15,19,24,26 of strand 1 (MS of Bio-NNGmin: seven of eight coupled)) CCCGTGTTAGATAGTAAGTGCAATCTCGGCTTTCTGTCTCTTATACACATCTGACGCTGCCGACGA/TCGTCGGCAGCGTCAGATGTGTATAAGAGACAGTTTTTTTTTTTTTTTTTTTTTTTTTTACCAGGAGCTC; test: as above; conditions: 120 mM Na+, 5 mM K+, 1 mM Mg2+, 1 mM Ca2+; 20 mM Tris-HCl, 0.01% Tween-20, 25 °C; apparent; order of ~0.3 for all four constructs
[9] = test system: glu-4 ADS construct (DNA, aptamer, boronic acid-modified U (Z, T in the source) at 5,7,8,12,15,19,24,26 of strand 1 (MS of Bio-NNGmin: seven of eight coupled)) CCCGTGTTAGATAGTAAGTGCAATCTCGGCTTTCTGTCTCTTATACACATCTGACGCTGCCGACGA/TCGTCGGCAGCGTCAGATGTGTATAAGAGACAGTTTTTTTTTTTTTTTTTTTTTTTTTACCAGGAGCTTC; test: as above; conditions: 120 mM Na+, 5 mM K+, 1 mM Mg2+, 1 mM Ca2+; 20 mM Tris-HCl, 0.01% Tween-20, 25 °C; apparent; order of ~0.3 for all four constructs

Nc1ncnc2c1ncn2[C@@H]1O[C@H](COP(=O)(O)OP(=O)(O)OP(=O)(O)O)[C@@H](O)[C@H]1O
KD [1]: 12 µM

OC[C@H]1OC(O)[C@H](O)[C@@H](O)[C@@H]1O (stereo partly drawn)
binding [2]: weak | binding [3]: weak | binding [4]: weak | binding [5]: weak | KDeff [6]: ~ 0.3 mM | KDeff [7]: ~ 0.3 mM | KDeff [8]: ~ 0.3 mM | KDeff [9]: ~ 0.3 mM
